# Assay results: PMC10293842 (Proceedings of the National Academy of Sciences of the …, 2023)
# pEC50: −log10 of the molar value. Positions of bridges follow the written chain, without caps; N, C: chain ends. Residues, ends and D or L forms follow the SMILES beside them.
# Columns and labels:
# Omicron BA.1 and BA.2 = conditions: cited from earlier work
# Omicron BA.2 = conditions: cited from earlier work
# Omicron BA.1 = conditions: cited from earlier work
# [1] = test system: Omicron (B.1.1.529) BA.1 S pseudotyped virus on VeroE6 cells; format: cell-based, SARS-CoV-2
# [2] = test system: SARS-CoV-2 S (Wuhan-Hu-1) pseudo-typed VSV on VeroE6 cells; format: cell-based
# [3] = test system: SARS1-S pseudovirus on VeroE6 cells; format: cell-based
# [4] = test system: Delta (B.1.617.2) S pseudotyped virus on VeroE6 cells; format: cell-based, SARS-CoV-2
# [5] = test system: Beta (B.1.351) S pseudotyped virus on VeroE6 cells; format: cell-based, SARS-CoV-2
# [6] = test system: SARS-CoV-2 ancestral Wuhan strain in HEK293 ACE2+ TMPRSS2+ cells; conditions: 24 h
# [7] = test system: WIV-16-S pseudovirus on VeroE6 cells; format: cell-based
# [8] = test system: Omicron BA.2 S pseudotyped virus on VeroE6 cells; format: cell-based, SARS-CoV-2
# [9] = test system: Alpha (B.1.1.7) S pseudotyped virus on VeroE6 cells; format: cell-based, SARS-CoV-2
compound,measurement,setting,value
Cilgavimab [reference compound],decrease in activity,Omicron BA.1 and BA.2,20 fold
Sotrovimab,loss in potency against Omicron BA.2,Omicron BA.2,27 fold
same,loss in potency against Omicron BA.1,Omicron BA.1,threefold
CC[C@H](C)[C@@H]1NC(=O)[C@H](CCC(N)=O)NC(=O)[C@H](CCC(=O)O)NC(=O)[C@H](CCCNC(=N)N)NC(=O)[C@@H]2CCCN2C(=O)[C@H](CCCNC(=N)N)NC(=O)[C@H](CCCNC(=N)N)NC(=O)[C@H](Cc2ccc(O)cc2)NC(=O)CSC[C@@H](C(=O)NCC(N)=O)NC(=O)[C@H](Cc2ccccc2)NC(=O)[C@H](C(C)C)NC(=O)[C@H](Cc2c[nH]c3ccccc23)NC(=O)[C@H](CC(C)C)NC(=O)[C@H](CO)NC(=O)CNC(=O)[C@H]([C@@H](C)CC)NC(=O)[C@H]([C@@H](C)CC)NC1=O [Peptide S1b3inL1] ({CH2CO}-YRRPREQIIIGSLWVFCG-NH2; thioether N-17),"fluctuation of EC50, Omicron BA.1",[1],3.1 fold
same,pseudoviral neutralization activity (in words),[2],submicromolar concentrations
same,"change of infection inhibition, SARS1-S",[3],1.3 fold
same,"fluctuation of EC50, Delta",[4],2.1 fold
same,"fluctuation of EC50, Beta",[5],3.1 fold
same,pEC50,[6],5.28
same,"change of infection inhibition, WIV-16-S",[7],4.1 fold
same,"fluctuation of EC50, Omicron BA.2",[8],2.1 fold
same,"fluctuation of EC50, Alpha",[9],1.5 fold
